We go through twelve compounds from patent US4672066A, “Derivatives of 4-acetyl-3-hydroxy-2-alkyl-phenoxycarboxylic acids” (Hoffmann-La Roche Inc., priority 1985, dated 1987).

The target in assay [1] is T1, PAF (Canis lupus familiaris, UniProt A0A8I3NSH0).
T1 construct: followed by 2×10^7 dog platelets; from tissue; host or cells: washed platelets from citrate-treated dog blood
T1 sequence (A0A8I3NSH0 1-343): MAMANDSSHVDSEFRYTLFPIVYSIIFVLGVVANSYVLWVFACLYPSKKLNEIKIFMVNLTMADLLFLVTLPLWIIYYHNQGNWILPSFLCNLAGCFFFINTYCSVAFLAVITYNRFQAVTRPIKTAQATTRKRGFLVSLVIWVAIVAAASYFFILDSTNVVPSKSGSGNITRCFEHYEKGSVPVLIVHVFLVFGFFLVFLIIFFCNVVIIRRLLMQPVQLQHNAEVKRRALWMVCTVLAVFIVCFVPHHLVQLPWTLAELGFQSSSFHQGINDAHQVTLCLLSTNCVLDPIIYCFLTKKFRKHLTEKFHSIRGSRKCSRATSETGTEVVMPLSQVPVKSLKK
Description: PAF Radioreceptor Binding Assay. As to conditions: dog platelets, 3H-PAF. On the procedure: Platelet rich plasma is prepared by centrifugation of citrate-treated dog blood. Acidification to pH 6.5 with 0.15 M citric acid and centrifugation for 10 minutes at 1000 xg yields a platelet pellet which is then washed by resuspension in EDTA-Phosphate Buffered Saline (PBS) and recentrifuged. The washed platelet preparation is adjusted to 2×10^7 platelets/50 μl in 0.1% BSA-PBS. […] After mixing, incubating for 10 minutes at room temperature, and centrifuging for 1 minute in a Beckman Microfuge B (8000 xg), the pellet is removed by clipping off the tip of the tube, the platelets are solubilized with 200 μl of 50% methanol, and counted in 10 ml of Aquasol. […] Results obtained with representative compounds of the present invention in this assay are summarized hereinafter in Tables I, II and III.

The target in the next assay is T2, TXA2 synthase (Homo sapiens, UniProt P24557).
T2 construct: microsomal fractions from human platelets as enzyme source; from tissue; host or cells: microsomal fraction of human platelets
T2 sequence (P24557 1-533): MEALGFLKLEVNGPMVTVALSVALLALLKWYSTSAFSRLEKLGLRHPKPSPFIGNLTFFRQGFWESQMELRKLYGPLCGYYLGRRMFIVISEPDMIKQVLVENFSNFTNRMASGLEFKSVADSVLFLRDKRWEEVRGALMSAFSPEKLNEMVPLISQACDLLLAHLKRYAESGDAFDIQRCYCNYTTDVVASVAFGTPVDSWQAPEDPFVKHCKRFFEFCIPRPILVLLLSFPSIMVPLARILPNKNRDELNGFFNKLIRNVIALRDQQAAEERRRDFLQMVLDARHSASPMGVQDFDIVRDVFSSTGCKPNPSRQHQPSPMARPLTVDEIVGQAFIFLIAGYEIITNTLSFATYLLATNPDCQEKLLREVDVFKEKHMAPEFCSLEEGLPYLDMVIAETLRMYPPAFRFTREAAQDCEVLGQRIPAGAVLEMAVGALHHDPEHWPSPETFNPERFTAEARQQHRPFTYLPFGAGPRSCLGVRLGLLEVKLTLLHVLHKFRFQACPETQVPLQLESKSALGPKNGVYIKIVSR
In words: Thromboxane Synthase Inhibition, In Vitro. The assay is classed as biochemical. As to conditions: at 1 μM (value in parentheses), human platelet microsomes. On the procedure: TXA2 synthase activity is measured by following the conversion of ^14 C-prostaglandin endoperoxide (PGH2) to ^14 C-thromboxane A2 (TXA2) using microsomal fractions from human platelets as enzyme source. In the aqueous incubation medium, the TXA2 decomposes rapidly into TXB2. The amount of TXA2 synthase is adjusted so that under the conditions of the assay approximately 80-90% of the substrate, PGH2, is converted to product in control tubes. To prepare ^14 C-PGH2, ^14 C-AA (50-60 mCi/mmole; Rose Chem.) is incubated with sheep seminal vesicular gland microsomes for 1.5 minutes at 37° C. and then the ^14 C-PGH2 is extracted with diethylether, purified on columns of Sephadex LH-20 or silicic acid, and stored in acetone at -70° C. Incubations are done as follows. Sufficient ^14 C-PGH2 yield a final substrate concentration of 10 μM (~30,000 cpm) is added to the incubation tubes and then the acetone is removed under nitrogen. […] The tubes are incubated at 22° C. for 2 minutes, the reaction is stopped and then the radioactive products and the unconverted PGH2 are extracted and analyzed by thin layer chromatography. […] The amount of ^14 C-PGH2 converted to products was used as a measure of TXA2 synthase activity. Inhibitors were tested initially at a final concentration of 100 μM. Results obtained with representative compounds of the present invention in this assay are summarized hereafter in Table I, II and III.

The subject of the next assay is SRS-A. In words: Guinea Pig Ileum, In Vitro (SRS-A antagonism). The protocol: The guinea pig ileum bioassay system has been described by Orange and Austen, Adv. Immunol. 10: 104-144 ([…]). A 1.5 cm segment is removed from animals weighting 300-400 g. and suspended in an organ bath containing 10 ml. of Tyrodes solution with 10^-6 M atropine sulfate and 10^-6 M pyrilamine maleate. The bath is maintained at 37° C. and aerated with a mixture of 95% oxygen and 5% carbon dioxide. The SRS-A utilized in this screen is obtained by challenging chopped lung fragments from actively sensitized guinea pigs with egg albumin, in vitro. A dose-response curve to SRS-A challenge is established for the ileum. The dose of SRS-A which gives 50% of the maximal contraction (EC50) is then used for subsequent challenge. The drug concentration which inhibits, by 50%, the SRS-A induced constriction of the guinea pig ileum is determined.

In assay [2] the test system is PAF. In words: PAF-Induced Guinea Pig Bronchoconstriction Test. The assay is classed as in vivo, guinea pig (Hartley). As to conditions: 1.0 mg/kg i.v., 1 min pretreatment. On the procedure: Male guinea pigs (Hartley strain) weighing 300 to 500 g are anesthetized with urethane (2 g/kg) intraperitoneally and a polyethylene cannula is inserted into the jugular vein for drug administration. Tracheal pressure is recorded from a cannula inserted in the trachea and connected to a Statham pressure transducer. Propranolol (0.1 mg/kg) is administered intravenously five minutes before challenge with synthetic PAF, the animals's skeletal muscles are then paralyzed with succinylcholine (1.2 mg/kg i.v.), and the animal is respirated using a Harvard small animal respirator operating at 40 breaths/min and 2.5 cc stroke volume. Under these conditions PAF induces a dose-dependent increase in ventilatory pressure over a dose range of 0.5 to 5 pg/kg i.v. The bronchoconstrictive effect of PAF occurs at approximately a 10-fold lower dose than that obtained with LTE. For screening purposes animals are challenged with a single dose of PAF (10 pg/kg i.v.).
Test compounds are screened by either the intravenous route (1.0 mg/kg i.v., 1 min pretreatment) or oral route (100 mg/kg p.o., 2 hour pretreatment). The peak increase in ventilatory pressure (cm H2 O) is recorded for three control animals and five drug-treated animals and the percent inhibition determined.

Assay [3] relates to PAF. Description: PAF-Induced Rat Skin Wheal Test. The note with it: 5 mg/kg i.v. (1 min. pretreatment). The assay is classed as in vivo, Sprague-Dawley rats. On the procedure: This test evaluates the ability of compounds to inhibit PAF-induced increases in vascular permeability in the skin of Sprague-Dawley rats. PAF induces a dose-dependent skin wheal response in this system over a dose range of 0.0001 to 1 pg/0.05 ml injection. The profound vasoactive activity of PAF is emphasized by the fact that the maximum skin wheal response is considerably greater than that obtained with LTE and an EC50 response is elicited at a 10-fold lower dose. For drug screening purposes, 5 ng of PAF is injected intradermally into anesthetized rats which had been pretreated for 30 minutes with an antihistamine (pyrilamine maleate, 50 mg/kg, i.p.) and an antiserotonin compound (methylsergide maleate, 4 mg/kg, i.p.). Immediately thereafter, the test compound is injected intravenously into the tail vein of the animal. This is followed by an intravenous injection of Evan's blue dye (0.5% in saline). Thirty minutes later the animals are sacrificed and the increase in vascular permeability induced by the migration of dye into the injection point in the skin is determined. For this purpose, rats are sacrificed by cervical dislocation, the dorsal skin is removed, the long and short axis of each […] is measured with a metric vernier caliper and the average diameter is obtained.

Another assay concerns LTD4. Description: Leukotriene D4 (LTD4) Induced Arrhythmia Test. It is filed as in vivo, guinea pig (Hartley). The note with it: 10 mg/kg i.v. 5 min. before LTD4; conscious guinea pigs. On the procedure: Male Hartley guinea pigs are anesthetized with sodium pentobarbital and prepared for monitoring direct blood pressure and injecting drugs intravenously by catheterizing the right carotid artery and right jugular vein. Blood pressure, heart rate, and Lead II ECG are monitored in the conscious animal 24 hours later.
Intravenous administration of LTD4 (2.5 pg/kg) is associated with an increase in blood pressure lasting approximately 1-2 minutes followed by a decrease lasting approximately 5-15 minutes (FIG. 3). Abnormal beats consisting of premature ventricular contractions, ST elevation or depression, atrioventricular conduction block, or dissociated p waves begin during the rise in blood pressure; the peak effect occurs approximately 40 seconds after LTD4. The percent of abnormal beats was quantitated by determining the number present during the first 2 minutes after injection and calculating the percent increase above the control level. During the hypotensive response, the animal usually collapses during the 2nd or 3rd minute after LTD4.

Where [4] appears, read: Table II, read-out: TXA2 Synth. Inhib. % at (1μM).
The mark [5] stands for this setting: Table II, read-out: SRS Antagonism IC50.
[6] abbreviates: Table III, read-out: TXA2 Synth. Inhib. % at (1 μM).

SMILES strings stand for the structures. Where two headings read alike, the source gives them in different places.

As usually defined, the IC50 is the concentration needed to halve the response being measured. Turning to `CCCc1c(OCCCCCC(=O)NCCSc2cccnc2)ccc(C(C)=O)c1O`, the IC50 at PAF [1] (Table II) and with SRS-A (setting [5]) was 1000 nM each time. The inhibition at 1 µM on TXA2 synthase (setting [4]) amounted to 35%.

Consider `CCCc1c(OCC(O)COc2ccc3c(=O)cc(C(=O)O)oc3c2CCC)ccc(C(C)=O)c1O` (centres unmarked) [7-[3-(4-acetyl-3-hydroxy-2-propylphenoxy)-2-hydroxypropoxy]-4-oxo-8-propyl-4H-1-benzopyran-2-carboxylic acid, reference compound], for which the IC50 with SRS-A (standard SRS-A antagonist, read-out: IC50, SRS-A induced constriction of the guinea pig ileum) is 35 nM.

Turning to `CCCc1c(OCCCC(=O)NCCCCc2cccnc2)ccc(C(C)=O)c1O` [Example 5, 4-(4-Acetyl-3-hydroxy-2-propylphenoxy)-N-[4-(3-pyridinyl)butyl]butanamide], the IC50 at PAF [1] (Table I) worked out at 250 nM; in the assay with SRS-A (Table I, read-out: SRS-A Antagonism IC50), 5000 nM. Also, the inhibition at 1 µM was found to be 89% at TXA2 synthase (Table I, read-out: TXA2 Syn. Inhib. (1μM)) and 89% on TXA2 synthase (setting [6]). The “inhibition of PAF-induced bronchoconstriction” value in the assay on PAF [2] amounted to 64±12%.

Regarding `CCCc1c(OCCCC#CC(=O)NCCCCc2cccnc2)ccc(C(C)=O)c1O` [Example 21, 6-(4-Acetyl-3-hydroxy-2-propylphenoxy)-N-[4-(3-pyridinyl)butyl]-2-hexynamide], the “inhibition of PAF-induced bronchoconstriction” value in the assay on PAF [2] was determined as 98±10%. For the same compound, the “inhibition of PAF-induced rat skin wheal” value in the assay on PAF [3] turned out to be 62±3%.

Consider `CCCc1c(OCCCCCNC(=O)NCCCCc2cccnc2)ccc(C(C)=O)c1O` [Example 29, N-[5-(4-Acetyl-3-hydroxy-2-propylphenoxy)-pentyl]-N'-[4-(3-pyridinyl)butyl]urea], for which the IC50 at PAF [1] (Table III) was determined as 900 nM. In addition, the inhibition at 1 µM on TXA2 synthase (setting [6]) was found to be 89%. Further, the “inhibition of PAF-induced bronchoconstriction” value in the assay on PAF [2] was 68±10%.

With `CCCc1c(OCc2ccc(C(=O)NC(C)CCCc3cccnc3)cc2)ccc(C(C)=O)c1O` (centres unmarked) [Example 34, 4-[(4-Acetyl-3-hydroxy-2-propylphenoxy)-methyl]-N-[1-methyl-4-(3-pyridinyl)butyl]benzamide], in the assay on PAF [2], the “inhibition of PAF-induced bronchoconstriction” value is 85±8%. Moreover, in the assay with PAF [3], the “inhibition of PAF-induced rat skin wheal” value was determined as 63±4%.

Take `CCCc1c(OCc2cccc(C(=O)NCCCCc3cccnc3)c2OCC)ccc(C(C)=O)c1O` [Example 36, 3-[(4-Acetyl-3-hydroxy-2-propylphenoxy)-methyl]-2-ethoxy-[4-(3-pyridinyl)butyl]benzamide]: the “inhibition of PAF-induced bronchoconstriction” value in the assay on PAF [2] came to 96±2%.

Regarding `CCCc1c(OCc2ccc(C(=O)NCCCCc3cccnc3)c(OCC)c2)ccc(C(C)=O)c1O` [Example 37, 4-[(4-Acetyl-3-hydroxy-2-propylphenoxy)-methyl]-2-ethoxy-N-[4-(3-pyridinyl)butyl]benzamide], the “inhibition of PAF-induced bronchoconstriction” value in the assay on PAF [2] was determined as 96±1%.

Turning to `CCCc1c(OCCCCCC(=O)NCCCCc2cncnc2)ccc(C(C)=O)c1O` [drawing 31], the IC50 on PAF [1] (Table II) was 550 nM; in the assay with SRS-A (setting [5]), 10000 nM. In addition, the inhibition at 1 µM at TXA2 synthase (setting [4]) is 66%.

`CCCc1c(OCC#CCCCC(=O)NCCCCc2cccnc2)ccc(C(C)=O)c1O` [drawing 35]: the IC50 was 600 nM at PAF [1] (Table II) and 700 nM in the assay on SRS-A (setting [5]).

Turning to `CCCc1c(OCCCCCC(=O)NCCCCc2cncnc2)ccc(C(C)=O)c1O` [drawing 41], in the assay with LTD4, the “Arrhy's (R/T)” value was 1/3, the “decrease in blood pressure (.dwnarw.XABP)” value is -44 ± 5 Δmm Hg and the “increase in blood pressure (.uparw.XABP)” value was 32 ± 2 Δmm Hg.

Take `CCCc1c(OCC#CCCCC(=O)NCCCCc2cccnc2)ccc(C(C)=O)c1O` [drawing 42]: in the assay on LTD4, the “Arrhy's (R/T)” value is on record as 1/3, the “decrease in blood pressure (.dwnarw.XABP)” value is recorded as -44.5 Δmm Hg and the “increase in blood pressure (.uparw.XABP)” value is 18 ± 4 Δmm Hg.
